What was measured:
[1] = biological target: T1, GST-tagged KRAS G12D (2-169) (Homo sapiens, UniProt P01116, G12D); assay: Nucleotide exchange assay (NEA), HTRF of SOS-mediated GTP-DY-647P1 binding; format: biochemical; details: 5 nM GST-KRAS G12D, 20 nM SOScat, 150 nM GTP; compound 1 h at RT
T1 construct: GST-tagged KRAS^G12D (2-169, Reaction Biology, MSC-11-539); purchased Reaction Biology MSC-11-539 (KRAS G12D); MSC-11-502 (SOS1cat)
In short: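 After 1 h RT preincubation of compound with KRAS, SOS1cat (20 nM final) and fluorescent GTP analog (150 nM) were added to 5 nM KRAS; HTRF (anti-GST Tb donor) followed at RT for up to 90 min. % inhibition relative to DMSO and no-SOS1 blank, 4-parameter curve fit.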

[2] = biological target: T2, KRAS G12D/RAF1 (Homo sapiens, UniProt P01116, G12D); assay: Protein-protein interaction (PPI) HTRF assay KRAS G12D/RAF1; format: binding; details: KRAS G12D/RAF1, GppNHp-loaded KRAS; 30 minutes pre-incubation
T2 construct: KRAS (1-169) proteins were expressed in E. coli at 18° C; His6-MBP (N, cleaved yes); made in house; host or cells: E. coli
In short: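 IC50 values come from the 665/615 HTRF ratio, scaled between no-compound (0% inhibition) and untagged RAF1 (100%). GppNHp-exchanged, biotinylated RAS (1-169) solution at 16 nM met compound for 30 min at room temperature. Then 16 nM His-tagged RAF1 (52-131) donor solution was added and incubated 1 h.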

T1 sequence (P01116 2-169 isoform P01116-2 G12D): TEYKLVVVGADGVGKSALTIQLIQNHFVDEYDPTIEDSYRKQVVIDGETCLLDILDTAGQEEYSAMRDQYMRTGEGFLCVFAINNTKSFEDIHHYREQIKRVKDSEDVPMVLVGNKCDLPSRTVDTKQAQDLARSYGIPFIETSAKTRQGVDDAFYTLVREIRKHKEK
T2 sequence (P01116 1-169 isoform P01116-2 G12D): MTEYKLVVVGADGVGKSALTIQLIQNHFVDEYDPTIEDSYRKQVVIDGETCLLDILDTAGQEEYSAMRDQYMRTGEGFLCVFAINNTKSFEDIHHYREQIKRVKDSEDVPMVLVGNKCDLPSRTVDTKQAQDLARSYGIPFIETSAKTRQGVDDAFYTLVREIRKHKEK

| SMILES | IC50 [1] [µM] | IC50 [2] [µM] |
| --- | --- | --- |
| CN(C)C(=O)c1nn2c(c1Cl)CN(c1nc(OC[C@@]34CCCN3C[C@H](F)C4)nc3c1CN(C)[C@@]1(CCc4ccccc41)C3)CCC2 [Compound 53, 3-chloro-5-[(7S)-2-[[(2R,8S)-2-fluoro-1,2,3,5,6,7-hexahydropyrrolizin-8-yl]methoxy]-6-methyl-spiro[5,8-dihydropyrido[4,3-d]pyrimidine-7,1′-indane]-4-yl]-N,N-dimethyl-4,6,7,8-tetrahydropyrazolo[1,5-a][1,4]diazepine-2-carboxamide] | < 0.01 | 10 to 100 |
| CN(C)C(=O)c1nn2c(c1Cl)CN(c1nc(OC[C@@]34CCCN3C[C@H](F)C4)nc3c1CN(C)[C@@]1(CCc4c(Cl)cccc41)C3)CCC2 [Compound 55, 3-chloro-5-((S)-4-chloro-2′-(((2R,7aS)-2-fluorotetrahydro-1H-pyrrolizin-7a(5H)-yl)methoxy)-6′-methyl-2,3,5′,8′-tetrahydro-6′H-spiro[indene-1,7′-pyrido[4,3-d]pyrimidin]-4′-yl)-N,N-dimethyl-5,6,7,8-tetrahydro-4H-pyrazolo[1,5-a][1,4]diazepine-2-carboxamide] | < 0.01 | 10 to 100 |
| CN1Cc2c(nc(OC[C@@]34CCCN3C[C@H](F)C4)nc2N2CCC[C@]3(C2)NC(=O)NC3=O)C[C@]12CCc1ccccc12 [Compound 60, (5R)-9-[(7S)-2-[[(2R,8S)-2-fluoro-1,2,3,5,6,7-hexahydropyrrolizin-8-yl]methoxy]-6-methyl-spiro[5,8-dihydropyrido[4,3-d]pyrimidine-7,1′-indane]-4-yl]-1,3,9-triazaspiro[4.5]decane-2,4-dione] | 0.1 to 1 | 10 to 100 |
| CN(C)C(=O)c1nn2c(c1Cl)CN(c1nc(OC[C@@]34CCCN3C[C@H](F)C4)nc3c1CN(C)[C@@]1(CCc4c(F)ccc(F)c41)C3)CCC2 [Compound 61, 3-chloro-5-[(7S)-4′,7′-difluoro-2-[[(2R,8S)-2-fluoro-1,2,3,5,6,7-hexahydropyrrolizin-8-yl]methoxy]-6-methyl-spiro[5,8-dihydropyrido[4,3-d]pyrimidine-7,1′-indane]-4-yl]-N,N-dimethyl-4,6,7,8-tetrahydropyrazolo[1,5-a][1,4]diazepine-2-carboxamide] | < 0.01 | 10 to 100 |
| CN(C)C(=O)c1nn2c(c1Cl)CN(c1nc(OC[C@@]34CCCN3C[C@H](F)C4)nc3c1CN(C)[C@@]1(CCc4cccc(F)c41)C3)CCC2 [Compound 63, 3-chloro-5-[(7S)-7′-fluoro-2-[[(2R,8S)-2-fluoro-1,2,3,5,6,7-hexahydropyrrolizin-8-yl]methoxy]-6-methyl-spiro[5,8-dihydropyrido[4,3-d]pyrimidine-7,1′-indane]-4-yl]-N,N-dimethyl-4,6,7,8-tetrahydropyrazolo[1,5-a][1,4]diazepine-2-carboxamide] | < 0.01 | 10 to 100 |
| CN(C)C(=O)c1nn2c(c1Cl)CN(c1nc(OC[C@@]34CCCN3C[C@H](F)C4)nc3c1CN(C)[C@@]1(CCCc4ccccc41)C3)CCC2 [Compound 64, 3-chloro-5-[(7S)-2-[[(2R,8S)-2-fluoro-1,2,3,5,6,7-hexahydropyrrolizin-8-yl]methoxy]-6-methyl-spiro[5,8-dihydropyrido[4,3-d]pyrimidine-7,1′-tetralin]-4-yl]-N,N-dimethyl-4,6,7,8-tetrahydropyrazolo[1,5-a][1,4]diazepine-2-carboxamide] | < 0.01 | 10 to 100 |
| CN(C)C(=O)c1nn2c(c1Cl)CN(c1nc(OC[C@@]34CCCN3C[C@H](F)C4)nc3c1CN(C)[C@@]1(CCc4c(F)cccc41)C3)CCC2 [Compound 65, 3-chloro-5-[(7S)-4′-fluoro-2-[[(2R,8S)-2-fluoro-1,2,3,5,6,7-hexahydropyrrolizin-8-yl]methoxy]-6-methyl-spiro[5,8-dihydropyrido[4,3-d]pyrimidine-7,1′-indane]-4-yl]-N,N-dimethyl-4,6,7,8-tetrahydropyrazolo[1,5-a][1,4]diazepine-2-carboxamide] | < 0.01 | 10 to 100 |

Reference: US11912723B2, “KRAS modulators and uses thereof” (Quanta Therapeutics, Inc., priority 2022, dated 2024)
